Data: the NIST ThermoML archive (doi:10.1016/j.jct.2017.08.004)
Numbers after ± are expanded uncertainties.

Conditions: 355 K; 101.33 kPa; Crystal; Small sample (50 mg) DSC

Row | molar entropy | SMILES
1 | 271.49 ± 65 J/K/mol | OC[C@@H](O)[C@@H](O)[C@H](O)[C@H](O)CO [D-mannitol]
2 | 240.38 ± 51 J/K/mol | O[C@H]1[C@H](O)[C@@H](O)[C@H](O)[C@@H](O)[C@H]1O [cis-1,2,3,5-trans-4,6-cyclohexanehexol]

Second part, the molecule before the results:

Row | SMILES | molar entropy
3 | OC[C@H](O)C(O)[C@@H](O)CO [L-(-)-arabitol] | 243.24 ± 73 J/K/mol
4 | OC[C@@H](O)[C@@H](O)CO [meso-1,2,3,4-butanetetrol] | 197.11 ± 36 J/K/mol

Same assay, conditions: 360 K; 101.33 kPa; Crystal; Small sample (50 mg) DSC

Row | molar entropy | SMILES
5 | 243.37 ± 30 J/K/mol | OC[C@@H](O)C(O)[C@H](O)CO [D-arabitol]
6 | 275.43 ± 66 J/K/mol | OC[C@@H](O)[C@@H](O)[C@H](O)[C@H](O)CO [D-mannitol]
7 | 244.15 ± 52 J/K/mol | O[C@H]1[C@H](O)[C@@H](O)[C@H](O)[C@@H](O)[C@H]1O [cis-1,2,3,5-trans-4,6-cyclohexanehexol]

Further lines, the molecule ahead of its results:

Row | SMILES | molar entropy
8 | OC[C@H](O)C(O)[C@@H](O)CO [L-(-)-arabitol] | 247.71 ± 74 J/K/mol
9 | OC[C@@H](O)[C@@H](O)CO [meso-1,2,3,4-butanetetrol] | 199.9 ± 36 J/K/mol

Same assay, conditions: 365 K; 101.33 kPa; Crystal; Small sample (50 mg) DSC

Row | molar entropy | SMILES
10 | 248.05 ± 30 J/K/mol | OC[C@@H](O)C(O)[C@H](O)CO [D-arabitol]
11 | 279.37 ± 67 J/K/mol | OC[C@@H](O)[C@@H](O)[C@H](O)[C@H](O)CO [D-mannitol]
12 | 247.92 ± 52 J/K/mol | O[C@H]1[C@H](O)[C@@H](O)[C@H](O)[C@@H](O)[C@H]1O [cis-1,2,3,5-trans-4,6-cyclohexanehexol]
13 | 202.7 ± 37 J/K/mol | OC[C@@H](O)[C@@H](O)CO [meso-1,2,3,4-butanetetrol]

Same assay, conditions: 370 K; 101.33 kPa; Crystal; Small sample (50 mg) DSC

Row | molar entropy | SMILES
14 | 283.31 ± 68 J/K/mol | OC[C@@H](O)[C@@H](O)[C@H](O)[C@H](O)CO [D-mannitol]
15 | 251.69 ± 53 J/K/mol | O[C@H]1[C@H](O)[C@@H](O)[C@H](O)[C@@H](O)[C@H]1O [cis-1,2,3,5-trans-4,6-cyclohexanehexol]
16 | 205.49 ± 37 J/K/mol | OC[C@@H](O)[C@@H](O)CO [meso-1,2,3,4-butanetetrol]

Same assay, conditions: 375 K; 101.33 kPa; Crystal; Small sample (50 mg) DSC

Row | molar entropy | SMILES
17 | 287.25 ± 69 J/K/mol | OC[C@@H](O)[C@@H](O)[C@H](O)[C@H](O)CO [D-mannitol]
18 | 255.47 ± 54 J/K/mol | O[C@H]1[C@H](O)[C@@H](O)[C@H](O)[C@@H](O)[C@H]1O [cis-1,2,3,5-trans-4,6-cyclohexanehexol]
19 | 208.29 ± 38 J/K/mol | OC[C@@H](O)[C@@H](O)CO [meso-1,2,3,4-butanetetrol]

Same assay, conditions: 380 K; 101.33 kPa; Crystal; Small sample (50 mg) DSC

Row | molar entropy | SMILES
20 | 291.19 ± 70 J/K/mol | OC[C@@H](O)[C@@H](O)[C@H](O)[C@H](O)CO [D-mannitol]
21 | 259.25 ± 55 J/K/mol | O[C@H]1[C@H](O)[C@@H](O)[C@H](O)[C@@H](O)[C@H]1O [cis-1,2,3,5-trans-4,6-cyclohexanehexol]
22 | 211.1 ± 38 J/K/mol | OC[C@@H](O)[C@@H](O)CO [meso-1,2,3,4-butanetetrol]

Same assay, conditions: 380 K; 101.33 kPa; Liquid; Small sample (50 mg) DSC

Row | molar entropy | SMILES
23 | 355.56 ± 110 J/K/mol | OC[C@H](O)C(O)[C@@H](O)CO [L-(-)-arabitol]

Same assay, conditions: 385 K; 101.33 kPa; Crystal; Small sample (50 mg) DSC

Row | molar entropy | SMILES
24 | 295.12 ± 71 J/K/mol | OC[C@@H](O)[C@@H](O)[C@H](O)[C@H](O)CO [D-mannitol]
25 | 263.03 ± 56 J/K/mol | O[C@H]1[C@H](O)[C@@H](O)[C@H](O)[C@@H](O)[C@H]1O [cis-1,2,3,5-trans-4,6-cyclohexanehexol]
26 | 213.99 ± 39 J/K/mol | OC[C@@H](O)[C@@H](O)CO [meso-1,2,3,4-butanetetrol]

Same assay, conditions: 385 K; 101.33 kPa; Liquid; Small sample (50 mg) DSC

Row | molar entropy | SMILES
27 | 361.46 ± 110 J/K/mol | OC[C@H](O)C(O)[C@@H](O)CO [L-(-)-arabitol]

Same assay, conditions: 390 K; 101.33 kPa; Crystal; Small sample (50 mg) DSC

Row | molar entropy | SMILES
28 | 299.04 ± 72 J/K/mol | OC[C@@H](O)[C@@H](O)[C@H](O)[C@H](O)CO [D-mannitol]
29 | 266.82 ± 56 J/K/mol | O[C@H]1[C@H](O)[C@@H](O)[C@H](O)[C@@H](O)[C@H]1O [cis-1,2,3,5-trans-4,6-cyclohexanehexol]
30 | 217.51 ± 39 J/K/mol | OC[C@@H](O)[C@@H](O)CO [meso-1,2,3,4-butanetetrol]

Same assay, conditions: 390 K; 101.33 kPa; Liquid; Small sample (50 mg) DSC

Row | molar entropy | SMILES
31 | 369.2 ± 45 J/K/mol | OC[C@@H](O)C(O)[C@H](O)CO [D-arabitol]
32 | 367.15 ± 110 J/K/mol | OC[C@H](O)C(O)[C@@H](O)CO [L-(-)-arabitol]

Same assay, conditions: 395 K; 101.33 kPa; Crystal; Small sample (50 mg) DSC

Row | molar entropy | SMILES
33 | 302.96 ± 73 J/K/mol | OC[C@@H](O)[C@@H](O)[C@H](O)[C@H](O)CO [D-mannitol]
34 | 270.6 ± 57 J/K/mol | O[C@H]1[C@H](O)[C@@H](O)[C@H](O)[C@@H](O)[C@H]1O [cis-1,2,3,5-trans-4,6-cyclohexanehexol]

Same assay, conditions: 395 K; 101.33 kPa; Liquid; Small sample (50 mg) DSC

Row | molar entropy | SMILES
35 | 374.96 ± 46 J/K/mol | OC[C@@H](O)C(O)[C@H](O)CO [D-arabitol]
36 | 372.77 ± 110 J/K/mol | OC[C@H](O)C(O)[C@@H](O)CO [L-(-)-arabitol]

Same assay, conditions: 400 K; 101.33 kPa; Crystal; Small sample (50 mg) DSC

Row | molar entropy | SMILES
37 | 306.87 ± 74 J/K/mol | OC[C@@H](O)[C@@H](O)[C@H](O)[C@H](O)CO [D-mannitol]
38 | 274.38 ± 58 J/K/mol | O[C@H]1[C@H](O)[C@@H](O)[C@H](O)[C@@H](O)[C@H]1O [cis-1,2,3,5-trans-4,6-cyclohexanehexol]

Same assay, conditions: 400 K; 101.33 kPa; Liquid; Small sample (50 mg) DSC

Row | molar entropy | SMILES
39 | 380.58 ± 46 J/K/mol | OC[C@@H](O)C(O)[C@H](O)CO [D-arabitol]
40 | 378.34 ± 110 J/K/mol | OC[C@H](O)C(O)[C@@H](O)CO [L-(-)-arabitol]

Same assay, conditions: 405 K; 101.33 kPa; Crystal; Small sample (50 mg) DSC

Row | molar entropy | SMILES
41 | 310.78 ± 75 J/K/mol | OC[C@@H](O)[C@@H](O)[C@H](O)[C@H](O)CO [D-mannitol]
42 | 278.16 ± 59 J/K/mol | O[C@H]1[C@H](O)[C@@H](O)[C@H](O)[C@@H](O)[C@H]1O [cis-1,2,3,5-trans-4,6-cyclohexanehexol]

Same assay, conditions: 405 K; 101.33 kPa; Liquid; Small sample (50 mg) DSC

Row | molar entropy | SMILES
43 | 386.13 ± 47 J/K/mol | OC[C@@H](O)C(O)[C@H](O)CO [D-arabitol]
44 | 383.87 ± 120 J/K/mol | OC[C@H](O)C(O)[C@@H](O)CO [L-(-)-arabitol]
45 | 333.59 ± 60 J/K/mol | OC[C@@H](O)[C@@H](O)CO [meso-1,2,3,4-butanetetrol]

Same assay, conditions: 410 K; 101.33 kPa; Crystal; Small sample (50 mg) DSC

Row | molar entropy | SMILES
46 | 314.68 ± 76 J/K/mol | OC[C@@H](O)[C@@H](O)[C@H](O)[C@H](O)CO [D-mannitol]
47 | 281.94 ± 60 J/K/mol | O[C@H]1[C@H](O)[C@@H](O)[C@H](O)[C@@H](O)[C@H]1O [cis-1,2,3,5-trans-4,6-cyclohexanehexol]

Same assay, conditions: 410 K; 101.33 kPa; Liquid; Small sample (50 mg) DSC

Row | molar entropy | SMILES
48 | 391.63 ± 48 J/K/mol | OC[C@@H](O)C(O)[C@H](O)CO [D-arabitol]
49 | 389.35 ± 120 J/K/mol | OC[C@H](O)C(O)[C@@H](O)CO [L-(-)-arabitol]
50 | 338.24 ± 61 J/K/mol | OC[C@@H](O)[C@@H](O)CO [meso-1,2,3,4-butanetetrol]
